According to patent publication US8877744B2, “1,4-Oxazepines as BACE1 and/or BACE2 inhibitors” (Hoffmann-La Roche Inc., priority 2011, dated 2014):

Key:
[1] = target: T1, BACE1 (Homo sapiens, UniProt P56817); assay: Cellular Aβ-lowering assay a): HEK293 cells expressing human APP695, Aβ40 ELISA; assay type: cell-based; conditions: Aβ40 in supernatant by ELISA, 18-20 hrs incubation
T1 construct: endogenous in cells; host or cells: HEK293 stably transfected with human APP695 wt
Method: Cellular Aβ-Lowering Assay:
a) Human HEK293 cells which are stably transfected with a vector expressing a cDNA of the human APP wt gene (APP695) were used to assess the potency of the compounds in a cellular assay. The cells were seeded in 96-well microtiter plates in cell culture medium (Iscove, plus 10% (v/v) fetal bovine serum, glutamine, penicillin/streptomycin) to about 80% confluence and the compounds were added at a 10× concentration in 1/10 volume of medium without FCS containing 8% DMSO (final concentration of DMSO was kept at 0.8% v/v). After 18-20 hrs incubation at 37° C. and 5% CO2 in a humidified incubator the culture supernatant was harvested for the determination of Aβ40 concentrations. 96 well ELISA plates (e.g., Nunc MaxiSorb) were coated with monoclonal antibody which specifically recognize the C-terminal end of Aβ40 (Brockhaus et al., NeuroReport 9, 1481-1486; 1998). After blocking of non-specific binding sites with e.g. 1% BSA and washing, the culture supernatants were added in suitable dilutions together with a horseradish peroxidase-coupled Aβ detection antibody (e.g., antibody 4G8, Senetek, Maryland Heights, Mo.) and incubated for 5 to 7 hrs. Subsequently the wells of the microtiter plate were washed extensively with Tris-buffered saline containing 0.05% Tween 20 and the assay was developed with tetramethylbenzidine/H2O2 in citric acid buffer. After stopping the reaction with one volume 1 N H2SO4 the reaction was measured in an ELISA reader at 450 nm wavelength. The concentrations of Aβ in the culture supernatants were calculated from a standard curve obtained with known amounts of pure Aβ peptide.

[2] = target: T2, endogenous cellular BACE2 (Rattus norvegicus, UniProt Q6IE75); assay: Assay for BACE inhibition by measuring cellular TMEM27 cleavage (INS-TMEM27 cells, ELISA); assay type: cell-based; conditions: INS-TMEM27 (Ins1e rat) cells, shed human TMEM27 by ELISA
T2 construct: endogenous in cells; host or cells: INS-TMEM27 (INS1e-derived rat cell line with inducible full-length hTMEM27)
T2 sequence (Q6IE75 63-514): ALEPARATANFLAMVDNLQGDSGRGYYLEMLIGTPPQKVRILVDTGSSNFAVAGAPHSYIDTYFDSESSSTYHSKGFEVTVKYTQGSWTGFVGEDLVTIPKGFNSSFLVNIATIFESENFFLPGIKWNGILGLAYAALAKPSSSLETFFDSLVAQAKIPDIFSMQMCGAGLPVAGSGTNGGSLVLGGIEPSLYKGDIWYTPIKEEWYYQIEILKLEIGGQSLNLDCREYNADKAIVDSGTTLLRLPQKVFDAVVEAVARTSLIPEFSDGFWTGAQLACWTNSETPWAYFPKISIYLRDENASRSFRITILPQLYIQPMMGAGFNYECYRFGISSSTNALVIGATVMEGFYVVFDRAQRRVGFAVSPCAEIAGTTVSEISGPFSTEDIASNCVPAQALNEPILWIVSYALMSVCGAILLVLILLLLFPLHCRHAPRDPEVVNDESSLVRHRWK
Excerpt: Assay for BACE Inhibition by Measuring Cellular TMEM27 Cleavage:
The assay uses the principle of inhibition of human TMEM27 cleavage by endogenous cellular BACE2 in the Ins1e rat cell line and shedding from the cell surface into the culture medium, followed by detection in an ELISA assay Inhibition of BACE2 prevents the cleavage and shedding in a dose-dependent manner
The stable cell line “INS-TMEM27” represents an INS1e-derived cell line with inducible expression (using the TetOn system) of full-length hTMEM27 in a doxycycline-dependent manner. The cells are cultured throughout the experiment in RPMI1640+Glutamax (Invitrogen) Penicillin/Streptomycin, 10% Fetal bovine serum, […], […], 100 micrograms/ml G418 and 100 microgram/ml hygromycin and are grown inadherent culture at 37° C. in a standard CO2 cell culture incubator.
INS-TMEM27 cells are seeded in 96-well plates. After 2 days in culture, BACE2 inhibitor is added in a range of concentrations as required by the assay and after a further two hours, doxycycline is added to a final concentration of 500 ng/ml. The cells are incubated for a further 46 hours and the supernatant harvested for detection of shed TMEM27.
An ELISA assay (using a pair of mouse anti-human-TMEM27 antibodies, raised against the extracellular domain of TMEM27) is used for detection of TMEM27 in the culture medium. An EC50 for BACE2 inhibition is calculated using the ELISA readout for each inhibitor concentration with standard curve-fitting software such as XLFit for the Excel spreadsheet program.

T1 sequence (P56817 46-501): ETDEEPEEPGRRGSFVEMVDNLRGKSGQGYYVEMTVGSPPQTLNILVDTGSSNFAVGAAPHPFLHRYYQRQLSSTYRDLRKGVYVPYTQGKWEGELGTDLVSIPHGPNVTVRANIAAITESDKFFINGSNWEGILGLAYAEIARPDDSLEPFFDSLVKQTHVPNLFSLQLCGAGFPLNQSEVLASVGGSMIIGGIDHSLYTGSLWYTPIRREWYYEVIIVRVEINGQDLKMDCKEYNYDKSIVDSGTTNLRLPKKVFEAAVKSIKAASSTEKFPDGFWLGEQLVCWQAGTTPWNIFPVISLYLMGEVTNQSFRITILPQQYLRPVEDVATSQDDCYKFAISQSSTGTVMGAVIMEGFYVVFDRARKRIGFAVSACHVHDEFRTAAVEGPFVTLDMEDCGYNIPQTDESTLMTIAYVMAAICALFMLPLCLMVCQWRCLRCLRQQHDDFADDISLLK

| IC50 [1] [nM] | IC50 [2] [nM] | Structure (SMILES) |
| --- | --- | --- |
| 205 | 592 | CC1(C)OCC(N)=N[C@](C)(c2cc(-c3cncc(Cl)c3)ccc2F)C1(F)F [Example 4, (R)-5-[5-(5-Chloro-pyridin-3-yl)-2-fluoro-phenyl]-6,6-difluoro-5,7,7-trimethyl-2,5,6,7-tetrahydro-[1,4]oxazepin-3-ylamine] |
| 1590 | 1330 | CC1(C)OCC(N)=N[C@](C)(c2cc(-c3cc(Cl)cc(Cl)c3)ccc2F)C1(F)F [Example 10, (R)-5-(3′,5′-Dichloro-4-fluoro-biphenyl-3-yl)-6,6-difluoro-5,7,7-trimethyl-2,5,6,7-tetrahydro-[1,4]oxazepin-3-ylamine] |
| 186 | 279 | CC1(C)OCC(N)=N[C@](C)(c2cc(-c3cccc(C#N)c3)ccc2F)C1(F)F [Example 14, 3′-((R)-3-Amino-6,6-difluoro-5,7,7-trimethyl-2,5,6,7-tetrahydro-[1,4]oxazepin-5-yl)-4′-fluoro-biphenyl-3-carbonitrile] |
